From patent US20140037685A1 (priority 2012, published 2014)
Entries after “also recorded” stand apart in the source; their conditions may differ.

How the values were obtained:
[1] = tested on: pro-caspase-1, IL-18, and IL-1β; type: cell-based, mouse
macrophages = assay: Confocal microscopy of lysosome rupture (fluorescent dextran) and plasma membrane integrity; type: cell-based, mouse
Protocol: (§1) FIG. 5A-5C. Lysosome rupture precedes cell death by alum and LLOMe, but not pyroptosis inducers. (A) Confocal microscopy of lysosome rupture in macrophages treated with […], 2.5 mM LLOMe, or 15 μM nigericin in the absence or presence of 100 μM CA-074-Me. The cells were stained with Hoechst (blue), 20 MW FITC-Dextran (green), CellMask Orange (red), TO-PRO-3 (white). 2D-fluorescent intensity plots of FITC-dextran staining of representative cells derived from alum, LLOMe, and nigericin-treated cells. Flow cytometry analysis of LLOMe and LT-treated cells. BALB/c-derived macrophages were exposed to 2.5 mM LLOMe (B) or 500 ng/ml LT (C) and lysosome and membrane integrity were measured using LysoTracker and PI at different time points using flow cytometry.
Cathepsin-dependent lysosome rupture correlates with degradation of inflammatory proteins. […] Lysosome-disrupting agents caused caspase-1-independent cell death and broad protein degradation, while pyroptosis inducers caused caspase-1-dependent cell death and targeted IL-1β secretion. In order to directly investigate the role of lysosome rupture in Nlrp3 activation, two complementary methods were used to analyze lysosome integrity in macrophages challenged with both lysosome-destabilizing agents and potassium-efflux inducers. First, lysosomal integrity was measured by labeling vesicles in the endolysosomal pathway with fluorescent dextran. […] Intriguingly, no plasma membrane impairment (indicative of necrotic cell death) was detectable at this time point, but was observed only 6 hours post alum exposure (FIG. 5A). […] LLOMe destabilized lysosomes within 30 min, without impairment of plasma membranes. A loss of plasma membrane integrity was observed only after 60 min of LLOMe exposure, resulting in dextran release from these cells (FIG. 5A).

C57BL/6 macrophages [2] = assay: 2D-DIGE of the cellular proteome of treated macrophages; type: cell-based, mouse; conditions: LPS-primed; 2.5 mM LLOMe or nigericin for 90 minutes
Source text: FIG. 10. 2D-DIGE gel of proteins isolated from untreated, nigericin- and LLOMe-treated macrophages. […] Protein lysates from control, nigericin, and LLOMe treated cells were isolated, and subsequently labeled with Cy2, Cy3 and Cy5, respectively, and separated on a 2D-DIGE gel.
Broad protein degradation mediated by LLOMe—As lysosomal proteases are highly promiscuous, it was reasoned that alum- and LL-mediated lysosomal release of proteolytic proteins may not just degrade Nlrp3-associated proteins, but may also trigger degradation of a broad range of cytosolic proteins, and might go beyond the degradation of inflammatory proteins reported here. To examine effects of LLOMe on the cellular proteome, macrophages were challenged with these compounds and generated lysates. 2D-DIGE was used to determine the extent of damage inflicted in macrophages exposed to the lysosome-disrupting agent, LLOMe. […] These findings further highlight the different impact of lysosome-destabilizing agents and pyroptosis inducers on the cellular proteome on a macro-level.

C57BL/6 macrophages [3] = assay: Increasing CA-074-Me concentrations in LLOMe- or nigericin-challenged macrophages (PI exclusion, immunoblot); type: cell-based, mouse
Nlrp3 [4] = assay: IL-1β release into macrophage supernatants by ELISA; type: cell-based, mouse; conditions: for Effect of inhibitor on IL-1β secretion/release by all inducers tested: inducers alum, LLOMe, ATP, nigericin, 40 μM Boc-D-CMK or 100 μM CA-074-Me
Protocol: (§2) FIG. 1A-1B. Alum and LLOMe are poor inducers of inflammasome-associated cytokines. […] Macrophages were then exposed to increasing concentrations of alum, LLOMe, ATP, or nigericin for 4 hours, or alum for 6 hours, in the presence or absence of the 40 μM Boc-D-CMK or 100 μM CA-074-Me. IL-1β release was assessed by ELISA (A), and cell death was determined by CytotoxOne LDH activity assay (B) from supernatants. All PI measurements were taken in triplicate from representative experiment. FIG. 2. Alum and LLOMe cause depletion of caspase-1 and NLR-associated cytokines. […] Lysates were probed for pro-caspase-1, IL-18, and IL-1β, and supernatants were probed for IL-1β by immunoblotting. Data is representative of 3 experiments.
FIG. 6A-6D. LPS triggers strong production of Th1 and Th2-associated IgG subtypes. IgG1 (A) and IgG2c (B) production in C57BL/6 mice 3 weeks after subcutaneous challenge with increasing amounts of LPS. (C) A combination of LPS and ATP triggers a strong IL-1β response in vitro and in vivo. Primary C57BL/6 macrophages were treated with 250 ng/ml LPS or PBS for 2 hours, followed by to 5 mM ATP in the presence or absence of the 40 μM Boc-D-CMK. IL-1β release was assessed by ELISA from supernatants. […] IL-1β production in the intraperitoneal lavage was determined by ELISA 30 min after ATP/PBS challenge.
Cell death assays and ELISAs. Necrosis was assessed by two methods: LDH release assays and propidium iodide (PI) exclusion. […] Fluorescence was measured using a Victor 2 plate reader from Perkin Elmer. LDH release was determined using the CytotoxOne kit from Promega, according to the manufacturer's instructions. […] The enzymatic assay was developed until signal was obtained from a positive control (300 μM hydrogen peroxide) and the reaction was stopped and measured on a Victor 2 plate reader. IL-1β Ready-Set-Go ELISA kits were purchased from eBioscience and were performed according to manufacturer's recommendations. IL-1β concentration was determined at 1:1 and 1:10 to ensure linear range. […] ELISAs were read on a Victor 2 plate reader from Perkin Elmer. […]

[5] = tested on: BALB/c-derived macrophages; assay: Flow cytometry of lysosome and membrane integrity (LysoTracker and PI); type: cell-based, mouse
Protocol: as §1
To quantify these findings, lysosomal integrity was also analyzed by flow cytometry with the lysosomal pH-indicator LysoTracker and the vital stain propidium iodide (FIG. 5B and C). […] Intriguingly, protein degradation was concurrent with a loss of lysosome integrity 30 to 45 min after LLOMe exposure, and 4-6 hours after alum exposure (FIGS. 5A and 5B).

C57BL/6 mice = assay: IgG1 and IgG2c production after immunization of mice; type: in vivo, mouse; conditions: immunized C57BL/6 mice; LPS 3 weeks after subcutaneous challenge
Protocol: (§3) FIG. 6A-6D. LPS triggers strong production of Th1 and Th2-associated IgG subtypes. IgG1 (A) and IgG2c (B) production in C57BL/6 mice 3 weeks after subcutaneous challenge with increasing amounts of LPS. (C) A combination of LPS and ATP triggers a strong IL-1β response in vitro and in vivo. Primary C57BL/6 macrophages were treated with 250 ng/ml LPS or PBS for 2 hours, followed by to 5 mM ATP in the presence or absence of the 40 μM Boc-D-CMK. IL-1β release was assessed by ELISA from supernatants. (D) C57BL/6 mice were i.p. primed with 1 ug LPS or PBS for 2 hours, followed by i.p. challenge with 100 mM ATP or PBS. IL-1β production in the intraperitoneal lavage was determined by ELISA 30 min after ATP/PBS challenge.
It was sought to determine if this difference correlated with the observed difference in in vivo IL-1β activation. To test this hypothesis, C57BL/6 mice were immunized with alum, LLOMe, and LPS.

Nlrp3 [6] = assay: IL-1β and LDH in intraperitoneal lavage after i.p. challenge; type: in vivo, mouse; conditions: C57BL/6 mice, agent injected intraperitoneally (LPS: high concentrations), no ATP
Protocol: as §3
FIG. 11. Similar in vitro and in vivo profiles of LLOMe and LPS/ATP-treated macrophages. C57BL/6 mice were i.p. primed with 1 μg LPS or PBS for 2 hours, followed by i.p. challenge with 500 μl of PBS containing 100 mM ATP, 2 mM LLOMe, or PBS only. IL-1β production and LDH activity was determined from the intraperitoneal lavage by ELISA 30 min after challenge.
Prototypical Nlrp3 inducers trigger a strong IL-1β in vivo and production of Th1-specific antibodies in vivo. While the substantial difference in Nlrp3-signalling in vitro is shown, it was further chosen to investigate the ability of lysosome-disrupting agents and pyroptosis inducer to activate Nlrp3 in vivo. […]

[7] = tested on: bone marrow-derived murine macrophages; assay: Necrotic cell death (LDH release / propidium iodide exclusion) in macrophages; type: cell-based, mouse
Protocol: as §2
Cell death assays and ELISAs. Necrosis was assessed by two methods: LDH release assays and propidium iodide (PI) exclusion. PI exclusion assays were performed in a 96-well flat-bottom plate using phenol-red-free DMEM and added to wells to a final concentration 30 μM 10-min before the specified time point. Fluorescence was measured using a Victor 2 plate reader from Perkin Elmer. LDH release was determined using the CytotoxOne kit from Promega, according to the manufacturer's instructions. […] The enzymatic assay was developed until signal was obtained from a positive control (300 μM hydrogen peroxide) and the reaction was stopped and measured on a Victor 2 plate reader. IL-1β Ready-Set-Go ELISA kits were purchased from eBioscience and were performed according to manufacturer's recommendations. IL-1β concentration was determined at 1:1 and 1:10 to ensure linear range. […] ELISAs were read on a Victor 2 plate reader from Perkin Elmer.
Lysosome-disrupting agents induce potent cell death but poor IL-1β release. […] Towards this, bone marrow-derived murine macrophages were challenged with both lysosome disrupting and pyroptosis-inducing agents and measured the amount of IL-1β and LDH released into the supernatant as complementary read-outs for Nlrp3 activation. […]

[8] = LPS-primed macrophages, 40 μM Boc-D-CMK, LDH assay

## CO[C@@H]1C[C@@H](C[C@H]2CC[C@H](C)[C@H]([C@@H](C)C(=O)O)O2)O[C@]2(O[C@](C)([C@H]3CC[C@@](C)([C@@H]4O[C@@H]([C@H]5O[C@@](O)(CO)[C@H](C)C[C@@H]5C)C[C@@H]4C)O3)C[C@H]2C)[C@@H]1C [nigericin, Nigericin]
[1]
  Processing of pro-caspase-1 (p45) into p10 and p20: minimal decrease of p45 with a notable increase of p20 or p10
macrophages; nigericin-treated cells (FIG. 5A)
  Timing of lysosome impairment relative to cell death: occurred only after cell death induction
C57BL/6 macrophages [2]
  Degradation of cellular proteins (2D-DIGE): did not trigger any apparent degradation
C57BL/6 macrophages [3]; LPS-primed C57BL/6 macrophages (FIG. 4B)
  Caspase-1 activation and Nlrp3 signaling: mature IL-1β in the supernatant: triggered caspase-1 activation and Nlrp3 signaling

## COC(=O)[C@H](CC(C)C)NC(=O)[C@@H](N)CC(C)C [LLOMe, Leu-Leu-OMe]
Nlrp3 [4]; LPS-primed (250 ng/ml, 2 hours) murine macrophages challenged with the inducer, ELISA of supernatants
  IL-1β release: only minimal
[1]
  Cellular pro-caspase-1 levels: significant depletion
  Cytosolic levels of IL-18 and IL-1β: dramatic decrease
  Mature caspase-1 (p20) indicative of caspase-1 activation: No mature caspase-1 (p20)
  Processing of pro-caspase-1 (p45) into p10 and p20: substantial depletion of p45 without generating the p20 or p10 subunits
  Release of mature IL-1β into the supernatant (immunoblot): no mature IL-1β
[5]; 2.5 mM LLOMe, LysoTracker
  Time to complete loss of lysosome integrity: ≤ 30 min
[5]; 2.5 mM LLOMe, PI
  Time at which necrotic cell death was observed: 60 to 90 min
[5]; after LLOMe exposure
  Time of protein degradation concurrent with loss of lysosome integrity: 30 to 45 min
C57BL/6 mice
  IgG1 / Th2 response: polarized IgG1
  IgG2c response (Th1): little induction
macrophages; 2.5 mM LLOMe
  Time at which loss of plasma membrane integrity was observed: 60 min
  Time to destabilized lysosomes, without impairment of plasma membranes: ≤ 30 min
C57BL/6 macrophages [2]
  Degradation of cellular proteins (2D-DIGE): broad degradation
Nlrp3 [6]
  IL-1β release in vivo: poor release
  LDH release in vivo: significant release

## Boc-D-CMK
Nlrp3 [4]
  Effect of inhibitor on IL-1β secretion/release by all inducers tested: blocked
[7]; [8]
  Effect of inhibitor on alum and LLOMe-induced necrotic cell death: no impact
  Effect of inhibitor on cell death mediated by ATP and nigericin: prevented

## CCCNC(=O)[C@H]1O[C@@H]1C(=O)N[C@H](C(=O)N1CCC[C@H]1C(=O)OC)[C@@H](C)CC [CA-074-Me]
Nlrp3 [4]
  Effect of inhibitor on IL-1β secretion/release by all inducers tested: blocked
[1]
  Effect of inhibitor on alum and LLOMe-mediated drop/degradation of proinflammatory proteins: prevented the drop; also recorded: blocked
macrophages; 100 μM CA-074-Me
  Effect of inhibitor on lysosomal release of dextran from alum and LLOMe-treated macrophages: blocked
[7]; alum, LLOMe, ATP, nigericin, 100 μM CA-074-Me
  Effect of inhibitor on necrotic cell death mediated by all agents/inducers tested: blocked necrosis
C57BL/6 macrophages [3]; 2.5 mM LLOMe, LPS-primed
  Effect of increasing inhibitor concentrations on cell death and drop in inflammatory proteins in LLOMe-treated macrophages: blocked both, cell death and the drop in inflammatory proteins
C57BL/6 macrophages [3]; nigericin (and ATP), LPS-primed
  Effect of inhibitor (at concentrations that blocked cell death) on release of processed IL-1β by Nlrp3 inducers: prevented the release of processed IL-1β
